Each block holds one compound with its values, some of them ahead of it. Starred links: 1 amine or outer side, 2 acyl side, 3 side chain; linkers in the order of their positions; H or OH if unused. Non-standard residues stand in square brackets, D forms with d. Residues, ends and D or L forms follow the SMILES beside them. *: point of attachment. X1 = O=C([C@H](Cc1ccc(Cc2ccccc2)cc1)N[*:1])[*:2]; Acetyl(2-naphthyloxy) = O=C(COc1ccc2ccccc2c1)*; Propanoyl(3-(3-pyridyl)) = O=C(CCc1cccnc1)*; Bip = N[C@@H](Cc1ccc(-c2ccccc2)cc1)C(=O)O; αMeW = C[C@](N)(Cc1c[nH]c2ccccc12)C(=O)O; 2Nal = N[C@@H](Cc1ccc2ccccc2c1)C(=O)O; Acetyl(2-thienyl) = O=C(Cc1cccs1)*; αMeF = C[C@](N)(Cc1ccccc1)C(=O)O; Tic = O=C(O)[C@@H]1Cc2ccccc2CN1
Legend:
[1] = target: T1, Neuromedin-U receptor 1 (Homo sapiens, UniProt Q9HB89); experiment: Agonist activity at human NMUR1 expressed in CHO cells at 10 nM by calcium mobilization assay; type: cell-based; details: 0.01 µM
T1 sequence (Q9HB89 whole entry): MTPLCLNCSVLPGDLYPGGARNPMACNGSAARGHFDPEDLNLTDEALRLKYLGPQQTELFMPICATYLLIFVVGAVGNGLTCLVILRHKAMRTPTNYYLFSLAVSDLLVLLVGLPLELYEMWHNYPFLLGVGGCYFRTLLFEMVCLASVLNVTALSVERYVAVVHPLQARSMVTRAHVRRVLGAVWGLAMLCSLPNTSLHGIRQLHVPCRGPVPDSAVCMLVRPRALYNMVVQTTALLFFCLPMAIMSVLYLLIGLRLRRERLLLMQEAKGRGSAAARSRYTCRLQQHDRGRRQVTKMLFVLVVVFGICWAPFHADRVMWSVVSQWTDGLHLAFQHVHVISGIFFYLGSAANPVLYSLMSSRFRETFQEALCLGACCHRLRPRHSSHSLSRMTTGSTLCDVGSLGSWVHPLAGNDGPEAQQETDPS

[2] = target: T2, Neuromedin-U receptor 2 (Homo sapiens, UniProt Q9GZQ4); experiment: Agonist activity at human NMUR2 expressed in CHO cells at 10 nM by calcium mobilization assay; type: cell-based; details: 0.01 µM
[3] = target: T1, Neuromedin-U receptor 1; experiment: Agonist activity at human NMUR1 expressed in CHO cells at 1000 nM by calcium mobilization assay relative to control; type: cell-based; details: read-out: Activity
[4] = Stability of the compound in 25% human serum assessed as intact residual rate at 50 uM incubated for 180 mins at 37 degreeC; type: ADME, cell-free; details: read-out: Stabilty
[5] = Stability of the compound in 25% human serum assessed as residual rate at 50 uM incubated for 10 mins at 37 degreeC; type: ADME, cell-free; details: read-out: Stabilty
[6] = target: T1, Neuromedin-U receptor 1; experiment: Agonist activity at human NMUR1 expressed in CHO cells at 10 nM by calcium mobilization assay relative to control; type: cell-based; details: read-out: Activity
[7] = target: T2, Neuromedin-U receptor 2; experiment: Agonist activity at human NMUR2 expressed in CHO cells at 10 nM by calcium mobilization assay relative to control; type: cell-based; details: read-out: Activity
[8] = Half life of the compound in 25% human serum; type: ADME, cell-free
[9] = target: T3, Neuromedin-U receptor 1 (Homo sapiens) (UniProt Q9HB89); experiment: Partial agonist activity at human NMUR1 expressed in CHO cells assessed as intrinsic activity at 10^-6 to 10^-12 M by calcium mobilization assay relative to control; type: functional, cell-based; details: filed as partial agonist, dose pM 1-1000000
T3 sequence (whole entry): T1 sequence (Q9HB89 whole entry)

[10] = target: T1, Neuromedin-U receptor 1; experiment: Partial agonist activity at human NMUR1 expressed in CHO cells by calcium mobilization assay; type: functional, cell-based
[11] = target: T1, Neuromedin-U receptor 1; experiment: Agonist activity at human NMUR1 expressed in CHO cells at 100 nM by calcium mobilization assay relative to control; type: cell-based; details: read-out: Activity
[12] = target: T1, Neuromedin-U receptor 1; experiment: Agonist activity at human NMUR1 expressed in CHO cells by calcium mobilization assay; type: cell-based
[13] = target: T1, Neuromedin-U receptor 1; experiment: Agonist activity at human NMUR1 expressed in CHO cells assessed as intrinsic activity at 10^-6 to 10^-12 M by calcium mobilization assay relative to control; type: cell-based; details: read-out: Intrinsic activity
[14] = Drug metabolism in 25% human serum assessed as M1 metabolite formation at 50 uM incubated for 180 mins at 37 degreeC by HPLC analysis; type: ADME, cell-free; details: 3 h
[15] = Drug metabolism in 25% human serum assessed as M2 metabolite formation at 50 uM incubated for 180 mins at 37 degreeC by HPLC analysis; type: ADME, cell-free; details: 3 h
[16] = target: T2, Neuromedin-U receptor 2; experiment: Agonist activity at human NMUR2 expressed in CHO cells by calcium mobilization assay; type: cell-based
[17] = Selectivity index, ratio of EC50 for agonist activity for human NMUR2 expressed in CHO cells to EC50 for agonist activity for human NMUR1 expressed in CHO cells by calcium mobilization assay; type: cell-based
[18] = target: T2, Neuromedin-U receptor 2; experiment: Agonist activity at human NMUR2 expressed in CHO cells at 100 nM by calcium mobilization assay; type: cell-based; details: 0.1 µM
[19] = target: T2, Neuromedin-U receptor 2; experiment: Agonist activity at human NMUR2 expressed in CHO cells at 1000 nM by calcium mobilization assay relative to control; type: cell-based; details: read-out: Activity

T2 sequence (Q9GZQ4 whole entry): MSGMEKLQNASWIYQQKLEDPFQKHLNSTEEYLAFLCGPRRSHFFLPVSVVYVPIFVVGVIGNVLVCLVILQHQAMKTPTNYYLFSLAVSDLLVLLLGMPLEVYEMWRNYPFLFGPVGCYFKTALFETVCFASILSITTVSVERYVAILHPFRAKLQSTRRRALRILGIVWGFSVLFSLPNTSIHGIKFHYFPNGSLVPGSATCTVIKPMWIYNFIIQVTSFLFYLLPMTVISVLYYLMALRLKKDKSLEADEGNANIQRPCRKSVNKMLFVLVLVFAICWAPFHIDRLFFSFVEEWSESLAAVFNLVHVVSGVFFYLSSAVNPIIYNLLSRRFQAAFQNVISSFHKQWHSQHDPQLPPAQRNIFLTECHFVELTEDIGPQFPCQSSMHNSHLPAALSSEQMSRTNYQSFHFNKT

Compound: N=C(N)NCCC[C@H](NC(=O)[C@@H]1CCCN1C(=O)[C@H](CCCNC(=N)N)NC(=O)[C@H](Cc1ccc(-c2ccccc2)cc1)NC(=O)COc1ccc2ccccc2c1)C(=O)N[C@@H](CC(N)=O)C(N)=O ({Acetyl(2-naphthyloxy)}-[Bip]RPRN-NH2)
Activity [1]: Not Active
Activity [2]: Not Active
activity at 1 µM [3]: 28%

Compound: C[C@@](Cc1ccccc1)(NC(=O)[C@H](Cc1ccc2ccccc2c1)NC(=O)CCc1cccnc1)C(=O)N[C@@H](CCCNC(=N)N)C(=O)N1CCC[C@H]1C(=O)N[C@@H](CCCNC(=N)N)C(=O)N[C@@H](CC(N)=O)C(N)=O ({Propanoyl(3-(3-pyridyl))}-[2Nal][αMeF]RPRN-NH2)
Activity [1]: Not Active
Activity [2]: Not Active

Compound: C[C@@](Cc1c[nH]c2ccccc12)(NC(=O)[C@H](Cc1c[nH]c2ccccc12)NC(=O)Cc1cccs1)C(=O)N[C@@H](CCCNC(=N)N)C(=O)N1CCC[C@H]1C(=O)N[C@@H](CCCNC(=N)N)C(=O)N[C@@H](CC(N)=O)C(N)=O ({Acetyl(2-thienyl)}-W[αMeW]RPRN-NH2)
remaining at 3 h, 50 µM [4]: 39%

Compound: N=C(N)NCCC[C@H](NC(=O)[C@@H]1CCCN1C(=O)[C@H](CCCNC(=N)N)NC(=O)[C@H](Cc1ccccc1)NC(=O)[C@H](Cc1ccc2ccccc2c1)NC(=O)CCc1cccnc1)C(=O)N[C@@H](CC(N)=O)C(N)=O ({Propanoyl(3-(3-pyridyl))}-[2Nal]FRPRN-NH2)
remaining at 10 min, 50 µM [5]: 35%
activity at 0.01 µM [6]: 61%
activity at 0.01 µM [7]: 19%
half-life [8]: 20 min
Intrinsic activity [9]: 71%
EC50 [10]: 1.7 nM

Compound: N=C(N)NCCC[C@H](NC(=O)[C@@H]1CCCN1C(=O)[C@H](CCCNC(=N)N)NC(=O)[C@@H]1Cc2ccccc2CN1C(=O)COc1ccc2ccccc2c1)C(=O)N[C@@H](CC(N)=O)C(N)=O ({Acetyl(2-naphthyloxy)}-[Tic]RPRN-NH2)
EC50 [12]: 30 nM
remaining at 10 min, 50 µM [5]: 64%
activity at 0.01 µM [6]: 30%
Emax [13]: 67%
Ratio EC50 [17]: 30
activity at 1 µM [19]: 48%

The next lines start with results.

remaining at 10 min, 50 µM [5]: 95%
activity at 0.1 µM [11]: 88%
Compound: N=C(N)NCCC[C@H](NC(=O)[C@@H]1CCCN1C(=O)[C@H](CCCNC(=N)N)NC(=O)[C@H](Cc1ccc(Cc2ccccc2)cc1)NC(=O)[C@H](Cc1c[nH]c2ccccc12)NC(=O)Cc1cccs1)C(=O)N[C@@H](CC(N)=O)C(N)=O ({Acetyl(2-thienyl)}-W[X1]RPRN-NH2)

remaining at 10 min, 50 µM [5]: 48%
Compound: COc1ccc(C[C@H](NC(=O)[C@H](Cc2c[nH]c3ccccc23)NC(=O)Cc2cccs2)C(=O)N[C@@H](CCCNC(=N)N)C(=O)N2CCC[C@H]2C(=O)N[C@@H](CCCNC(=N)N)C(=O)N[C@@H](CC(N)=O)C(N)=O)cc1 ({Acetyl(2-thienyl)}-WY(Me)RPRN-NH2)

EC50 [12]: 3.2 nM
activity at 0.01 µM [6]: 59%
Emax [13]: 75%
remaining at 3 h, 50 µM [4]: 84%
Drug metabolism [14]: Metabolite_Detected
Drug metabolism [15]: Metabolite_Detected
EC50 [16]: > 1000 nM
Compound: N=C(N)NCCC[C@H](NC(=O)[C@@H]1CCCN1C(=O)[C@H](CCCNC(=N)N)NC(=O)[C@H](Cc1ccc(-c2ccccc2)cc1)NC(=O)[C@H](Cc1ccc2ccccc2c1)NC(=O)CCc1cccnc1)C(=O)N[C@@H](CC(N)=O)C(N)=O ({Propanoyl(3-(3-pyridyl))}-[2Nal][Bip]RPRN-NH2)
Ratio EC50 [17]: > 300

remaining at 10 min, 50 µM [5]: 95%
activity at 0.1 µM [11]: 88%
Activity [18]: Not Active
remaining at 3 h, 50 µM [4]: 35%
Compound: N=C(N)NCCC[C@H](NC(=O)[C@@H]1CCCN1C(=O)[C@H](CCCNC(=N)N)NC(=O)[C@H](Cc1ccc(-c2ccccc2)cc1)NC(=O)[C@H](Cc1c[nH]c2ccccc12)NC(=O)Cc1cccs1)C(=O)N[C@@H](CC(N)=O)C(N)=O ({Acetyl(2-thienyl)}-W[Bip]RPRN-NH2)

Source: ChEMBL document CHEMBL4725299, “Design and synthesis of peptidic partial agonists of human neuromedin U receptor 1 with enhanced serum stability” (Bioorg Med Chem Lett, 2020)
